Source: US9096889B2, “Compositions and methods for monitoring transmembrane trafficking” (Promega Corporation, priority 2011, dated 2015)

Legend:
[1] = system: AT1R/FFluc fusion; experiment: AT1R/FFluc fusion endocytosis assay (reduction of luciferase signal); type: cell-based; details: varying concentrations, 15 minutes stimulation, FIG. 8
Description: For FFluc-V2R and FFluc-AT1R, plasmid DNA was transfected at 5 ng/well and 0.16 ng/well respectively. For transfection into HeLa cells, plasmid DNA was diluted 1:10 into carrier DNA yielding 5 ng/well plasmid DNA. […] 50 μL per well of luciferase substrate, D-luciferin, was then added to a final concentration of 0.2 mM D-luciferin, 2 mM MgCl2, and 2 mM ATP, and the cells incubated for 30 minutes at 37° C. For AT1R and V2R, 0.02 mM D-luciferin was used. For the luc2-B2AR experiment, 0.01 mM D-luciferin was used. For the FFLuc experiment using the D-luciferin derivative, PBI-3102, 0.02 mM substrate was used. Immediately prior to stimulation, luminescence was measured on a GLOMAX Multi Plus plate reader set to 0.5 s of integration time. Cells were then stimulated with the agonist indicated below ( 1/10 volume addition), and luminescence measured every two minutes in real-time. […] As controls, cells were treated with vehicle (Opti-MEM containing either DMSO or water). Normalized luminescence was determined by dividing the luminescence value (RLUs) of each sample by the luminescence from the same sample prior to stimulation (SEE FIG. 1A-D).
Cells were transfected with plasmid DNA encoding AT1R/FFluc fusion. […] Immediately prior to stimulation, luminescence was measured. Cells were then stimulated with varying concentrations of TRV120027 for 15 minutes, and luminescence detected. […]

[2] = target: beta2-adrenergic receptor (B2AR) fused to firefly luciferase (luc2) (UniProt P07550+P08659, E27Q/G16R/N119G/N50D); details: HEK293 cells, serially diluted agonist 30 minutes, trypsin/EDTA, D-luciferin without Mg/ATP, FIG. 2F
Chain of beta2-adrenergic receptor (B2AR) fused to firefly luciferase (luc2) (P08659+P07550 fused P08659:N50D/P08659:N119G/P07550:G16R/P07550:E27Q): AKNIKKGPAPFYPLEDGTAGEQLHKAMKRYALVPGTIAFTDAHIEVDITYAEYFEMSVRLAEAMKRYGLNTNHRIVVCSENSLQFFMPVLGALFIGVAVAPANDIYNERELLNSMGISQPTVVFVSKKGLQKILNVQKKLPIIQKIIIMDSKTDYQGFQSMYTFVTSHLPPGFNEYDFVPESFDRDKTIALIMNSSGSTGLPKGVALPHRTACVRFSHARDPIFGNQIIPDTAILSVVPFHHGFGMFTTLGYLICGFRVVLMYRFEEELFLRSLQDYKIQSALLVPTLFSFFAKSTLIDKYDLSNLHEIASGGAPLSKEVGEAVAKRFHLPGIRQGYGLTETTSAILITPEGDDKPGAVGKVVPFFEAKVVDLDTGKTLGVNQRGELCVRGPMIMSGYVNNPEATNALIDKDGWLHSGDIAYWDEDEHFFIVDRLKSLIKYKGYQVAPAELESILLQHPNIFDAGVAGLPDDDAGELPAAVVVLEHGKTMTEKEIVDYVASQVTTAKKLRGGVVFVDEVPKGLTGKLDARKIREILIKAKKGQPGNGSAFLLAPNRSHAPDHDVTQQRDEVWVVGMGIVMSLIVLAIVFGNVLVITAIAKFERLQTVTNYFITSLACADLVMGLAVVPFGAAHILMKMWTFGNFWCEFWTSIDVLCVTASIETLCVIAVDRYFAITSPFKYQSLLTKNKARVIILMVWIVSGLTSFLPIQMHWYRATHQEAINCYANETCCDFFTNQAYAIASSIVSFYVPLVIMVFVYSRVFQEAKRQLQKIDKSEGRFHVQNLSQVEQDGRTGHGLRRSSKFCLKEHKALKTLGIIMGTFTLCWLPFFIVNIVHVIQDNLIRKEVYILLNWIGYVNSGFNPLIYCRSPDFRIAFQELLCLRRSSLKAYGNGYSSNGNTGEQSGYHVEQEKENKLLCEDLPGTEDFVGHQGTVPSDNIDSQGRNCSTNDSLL

Structure (SMILES) | internalization of AT1R/FFluc fusion proteins (normalized luminescence) [1] | raw luminescence signal (endocytosis, gain of signal), negative control (B2AR) fusion proteins [2]
CC[C@H](C)[C@H](NC(=O)[C@H](Cc1ccc(O)cc1)NC(=O)[C@@H](NC(=O)[C@H](CCCNC(=N)N)NC(=O)CNC)C(C)C)C(=O)N[C@@H](Cc1cnc[nH]1)C(=O)N1CCC[C@H]1C(=O)N[C@H](C)C(=O)O [TRV120027] | detected internalization | 
NC(=O)CC[C@@H]1NC(=O)[C@H](Cc2ccccc2)NC(=O)[C@H](Cc2ccc(O)cc2)NC(=O)[C@@H](N)CSSC[C@@H](C(=O)N2CCC[C@H]2C(=O)N[C@@H](CCCN=C(N)N)C(=O)NCC(N)=O)NC(=O)[C@H](CC(N)=O)NC1=O [arginine vasopressin] |  | no increase
